Measured values published in patent US10676471B2, “Cycloalkyl-linked diheterocycle derivatives” (Pfizer Inc., priority 2014, dated 2020).

Test system: BT20 Cell
Experiment: Cancer Cell Lysate Total L-Glutamate Assay
Format: cell-based
Details: Homo sapiens, BT-20, 2 h, total L-glutamate in cell lysate, BT20 cells, 2 hour incubation with test compound
In short: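 BT20 and other cancer lines at ~80% confluence were given fresh L-glutamine-containing medium, then treated with serially diluted compound (0.5% DMSO) for 2 hours at 37° C. Washed cells were lysed by freeze-thaw and sonication. Lysate glutamate was measured via glutamate oxidase/HRP/50 μM Amplex Red fluorescence (ex 530-560, em 585 nm); IC50 by four-parameter logistic fit.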

IC50 [nM] | SMILES
0.3 | O=C(Cc1ccccn1)Nc1nnc([C@H]2CC3(C[C@H](c4nnc(NC(=O)Cc5ccccn5)s4)C3)C2)s1 (single isomer, unassigned) [Example 99, N,N′-(spiro[3.3]heptane-2,6-diyldi-1,3,4-thiadiazole-5,2-diyl)bis[2-(pyridin-2-yl)acetamide]]
10.6 | CC(=O)Nc1nnc(C2CCC(Cc3nnc(NC(=O)Cc4ccccc4)s3)C2)s1 (racemic) [Example 15, N-[5-({(cis)-3-[5-(acetylamino)-1,3,4-thiadiazol-2-yl]cyclopentyl}methyl)-1,3,4-thiadiazol-2-yl]-2-phenylacetamide]
12.2 | CC(=O)Nc1nnc([C@H]2CC[C@@H](Cc3nnc(NC(=O)Cc4ccccn4)s3)C2)s1 (single isomer, unassigned) [Example 17, N-[5-({(cis)-3-[5-(acetylamino)-1,3,4-thiadiazol-2-yl]cyclopentyl}methyl)-1,3,4-thiadiazol-2-yl]-2-(pyridin-2-yl)acetamide]
0.1 | O=C(Cc1ccccc1)Nc1ccc(C[C@@H]2CC[C@H](c3nnc(NC(=O)Cc4ccccn4)s3)C2)nn1 [Example 80, 2-phenyl-N-(6-{[(1R,3S)-3-{5-[(pyridin-2-ylacetyl)amino]-1,3,4-thiadiazol-2-yl}cyclopentyl]methyl}pyridazin-3-yl)acetamide]
3020 | CC(C)(C)C(=O)Nc1nnc(C[C@H]2CC[C@@H](c3nnc(NC(=O)C(C)(C)C)s3)C2)s1 (single isomer, unassigned) [Example 28, N-(5-{[(cis)-3-{5-[(2,2-dimethylpropanoyl)amino]-1,3,4-thiadiazol-2-yl}cyclopentyl]methyl}-1,3,4-thiadiazol-2-yl)-2,2-dimethylpropanamide]
10.4 | CC(=O)Nc1nnc([C@H]2CC3(C[C@H](c4nnc(NC(C)=O)s4)C3)C2)s1 (single isomer, unassigned) [Example 93, N,N′-(spiro[3.3]heptane-2,6-diyldi-1,3,4-thiadiazole-5,2-diyl)diacetamide]
349 | CC(=O)Nc1nnc(C2CCC(Cc3nnc(NC(=O)Cc4ncccn4)s3)C2)s1 (racemic) [Example 46, (rac)-N-[5-({(cis)-3-[5-(acetylamino)-1,3,4-thiadiazol-2-yl]cyclopentyl}methyl)-1,3,4-thiadiazol-2-yl]-2-(pyrimidin-2-yl)acetamide]
298 | CC(=O)Nc1nnc(C2CC3(C2)CC(c2nnc(NC(C)=O)s2)C3)s1 (racemic) [Example 141, N,N′-(spiro[3.3]heptane-2,6-diyldi-1,3,4-thiadiazole-5,2-diyl)diacetamide]
104 | CC(=O)Nc1nnc(C[C@@H]2CC[C@H](c3nnc(NC(C)=O)s3)C2)s1 (single isomer, unassigned) [Example 5]
50.7 | C[C@H](C(=O)Nc1nnc([C@H]2CC[C@@H](Cc3nnc(NC(=O)[C@H](C)c4cccnc4)s3)C2)s1)c1cccnc1 (single isomer, unassigned) [Example 35, 2-(pyridin-3-yl)-N-(5-{[(cis)-3-(5-{[2-(pyridin-3-yl)propanoyl]amino}-1,3,4-thiadiazol-2-yl)cyclopentyl]methyl}-1,3,4-thiadiazol-2-yl)propanamide]
4.4 | Cn1ccc(C(=O)Nc2nnc(C[C@H]3CC[C@@H](c4nnc(NC(=O)Cc5ccccn5)s4)C3)s2)n1 (racemic) [Example 137, (rac)-1-methyl-N-(5-{[(cis)-3-{5-[(pyridin-2-ylacetyl)amino]-1,3,4-thiadiazol-2-yl}cyclopentyl]methyl}-1,3,4-thiadiazol-2-yl)-1H-pyrazole-3-carboxamide]
9.9 | O=C(Cc1ccccn1)Nc1nnc(C[C@H]2C[C@H](c3nnc(NC(=O)Cc4ccccn4)s3)C2)s1 (single isomer, unassigned) [Example 23, 2-(pyridin-2-yl)-N-{5-[(trans-3-{5-[(pyridin-2-ylacetyl)amino]-1,3,4-thiadiazol-2-yl}cyclobutyl)methyl]-1,3,4-thiadiazol-2-yl}acetamide]
0.2 | CCC(=O)Nc1nnc([C@H]2CC[C@@H](Cc3ccc(NC(=O)Cc4ccccn4)nn3)C2)s1 [Example 119, N-{5-[(1S,3R)-3-({6-[(pyridin-2-ylacetyl)amino]pyridazin-3-yl}methyl)cyclopentyl]-1,3,4-thiadiazol-2-yl}propanamide]
78.9 | CCNc1nnc(C2CCC(Cc3nnc(NC(=O)Cc4ccccn4)s3)C2)s1 (racemic) [Example 24, (rac)-N-[5-({(cis)-3-[5-(ethylamino)-1,3,4-thiadiazol-2-yl]cyclopentyl}methyl)-1,3,4-thiadiazol-2-yl]-2-(pyridin-2-yl)acetamide]
2700 | CC(=O)Nc1nnc(C[C@H]2CC[C@@H](c3nnc(NC(=O)Cc4ccccn4)s3)C2)s1 (single isomer, unassigned) [Example 56, N-{5-[(cis)-3-{[5-(acetylamino)-1,3,4-thiadiazol-2-yl]methyl}cyclopentyl]-1,3,4-thiadiazol-2-yl}-2-(pyridin-2-yl)acetamide]
639 | C[C@H](C(=O)Nc1nnc([C@@H]2CC[C@H](Cc3nnc(NC(=O)[C@H](C)c4cccnc4)s3)C2)s1)c1cccnc1 (single isomer, unassigned) [Example 31, 2-(pyridin-3-yl)-N-(5-{[(cis)-3-(5-{[2-(pyridin-3-yl)propanoyl]amino}-1,3,4-thiadiazol-2-yl)cyclopentyl]methyl}-1,3,4-thiadiazol-2-yl)propanamide]
0.5 | O=C(Cc1ccccn1)Nc1nnc(C[C@@H]2CC[C@H](c3nnc(Nc4ncccn4)s3)C2)s1 (single isomer, unassigned) [Example 84, 2-(pyridin-2-yl)-N-[5-({(cis)-3-[5-(pyrimidin-2-ylamino)-1,3,4-thiadiazol-2-yl]cyclopentyl}methyl)-1,3,4-thiadiazol-2-yl]acetamide]
19.4 | C[C@@H](C(=O)Nc1nnc(C[C@@H]2CC[C@H](c3nnc(NC(=O)[C@H](C)c4cccnc4)s3)C2)s1)c1cccnc1 (single isomer, unassigned) [Example 37, 2-(pyridin-3-yl)-N-(5-{[(cis)-3-(5-{[2-(pyridin-3-yl)propanoyl]amino}-1,3,4-thiadiazol-2-yl)cyclopentyl]methyl}-1,3,4-thiadiazol-2-yl)propanamide]
1.3 | O=C(Cc1ccccn1)Nc1ccc(C2CCC(Cc3nnc(NC(=O)Cc4ccccn4)s3)C2)nn1 (racemic) [Example 26, 2-(pyridin-2-yl)-N-{5-[(3-{6-[(pyridin-2-ylacetyl)amino]pyridazin-3-yl}cyclopentyl)methyl]-1,3,4-thiadiazol-2-yl}acetamide]
380 | O=C(Cc1ccccn1)Nc1nnc(C2CCC(c3nnc(NC(=O)Cc4ccccn4)s3)CC2)s1 (racemic) [Example 140, N,N′-(cyclohexane-1,4-diyldi-1,3,4-thiadiazole-5,2-diyl)bis[2-(pyridin-2-yl)acetamide]]
3.4 | O=C(Cc1ccccn1)Nc1ccc(C[C@H]2CC[C@@H](c3nnc(Nc4ccccn4)s3)C2)nn1 (single isomer, unassigned) [Example 74, 2-(pyridin-2-yl)-N-[6-({(cis)-3-[5-(pyridin-2-ylamino)-1,3,4-thiadiazol-2-yl]cyclopentyl}methyl)pyridazin-3-yl]acetamide]
1.3 | CCC(=O)Nc1nnc(C2CC3(C2)CC(c2nnc(NC(=O)CC)s2)C3)s1 (stereo not drawn) [Example 134, N,N′-(spiro[3.3]heptane-2,6-diyldi-1,3,4-thiadiazole-5,2-diyl)dipropanamide]
789 | CC(=O)Nc1nnc(C2CCC(Cc3nnc(NC(=O)Cc4cncnc4)s3)C2)s1 (racemic) [Example 49, (rac)-N-[(cis)-5-({3-[5-(acetylamino)-1,3,4-thiadiazol-2-yl]cyclopentyl}methyl)-1,3,4-thiadiazol-2-yl]-2-(pyrimidin-5-yl)acetamide]
10.1 | CC(=O)Nc1nnc(C[C@H]2C[C@@H](c3nnc(NC(=O)Cc4ccc(C)cn4)s3)C2)s1 (single isomer, unassigned) [Example 107, N-[5-(cis-3-{[5-(acetylamino)-1,3,4-thiadiazol-2-yl]methyl}cyclobutyl)-1,3,4-thiadiazol-2-yl]-2-(5-methylpyridin-2-yl)acetamide]
0.2 | O=C(Cc1ccccn1)Nc1ccc(CC2CCC(c3nnc(NC(=O)Cc4ccccn4)s3)C2)nn1 (racemic) [Example 70, (rac)-2-(pyridin-2-yl)-N-{5-[(cis)-3-({6-[(pyridin-2-ylacetyl)amino]pyridazin-3-yl}methyl)cyclopentyl]-1,3,4-thiadiazol-2-yl}acetamide]
0.8 | C[C@@H](c1nnc(NC(=O)Cc2ccccn2)s1)[C@H]1C[C@@H](c2nnc(NC(=O)Cc3ccccn3)s2)C1 (single isomer, unassigned) [Example 103]
274 | CC(=O)Nc1nnc(C2CCC(C)(c3nnc(NC(C)=O)s3)C2(C)C)s1 (racemic) [Example 60, N,N′-{[-1,2,2-trimethylcyclopentane-1,3-diyl]di-1,3,4-thiadiazole-5,2-diyl}diacetamide]
2.3 | O=C(Cc1ccccn1)Nc1ccc(C[C@@H]2CC[C@H](c3nnc(NC4CC4)s3)C2)nn1 (single isomer, unassigned) [Example 110, N-[6-({(cis)-3-[5-(cyclopropylamino)-1,3,4-thiadiazol-2-yl]cyclopentyl}methyl)pyridazin-3-yl]-2-(pyridin-2-yl)acetamide]
2.4 | CCNc1nnc([C@H]2C[C@@H](Cc3ccc(NC(=O)Cc4ccccc4)nn3)C2)s1 (single isomer, unassigned) [Example 100, N-[6-({cis-3-[5-(ethylamino)-1,3,4-thiadiazol-2-yl]cyclobutyl}methyl)pyridazin-3-yl]-2-phenylacetamide]
0.7 | CCC(=O)Nc1ccc(C[C@H]2C[C@@H](c3nnc(NC(=O)Cc4ccccn4)s3)C2)nn1 (single isomer, unassigned) [Example 73]
